Data reported in patent US20160120863A1, “SLC2A TRANSPORTER INHIBITORS” (IOMET PHARMA LTD., priority 2013, published 2016).

Key:
Assay type in all cases: cell-based
human GLUT1 = molecular target: T1, human GLUT1 (Homo sapiens, UniProt P11166); assay: [3H]-deoxy-D-glucose uptake assay, GLUT1; conditions: [3H]-deoxy-D-glucose uptake in HEK293 cells stably expressing human GLUT1
T1 construct: expressed in transfected cells
T1 sequence (P11166 1-492): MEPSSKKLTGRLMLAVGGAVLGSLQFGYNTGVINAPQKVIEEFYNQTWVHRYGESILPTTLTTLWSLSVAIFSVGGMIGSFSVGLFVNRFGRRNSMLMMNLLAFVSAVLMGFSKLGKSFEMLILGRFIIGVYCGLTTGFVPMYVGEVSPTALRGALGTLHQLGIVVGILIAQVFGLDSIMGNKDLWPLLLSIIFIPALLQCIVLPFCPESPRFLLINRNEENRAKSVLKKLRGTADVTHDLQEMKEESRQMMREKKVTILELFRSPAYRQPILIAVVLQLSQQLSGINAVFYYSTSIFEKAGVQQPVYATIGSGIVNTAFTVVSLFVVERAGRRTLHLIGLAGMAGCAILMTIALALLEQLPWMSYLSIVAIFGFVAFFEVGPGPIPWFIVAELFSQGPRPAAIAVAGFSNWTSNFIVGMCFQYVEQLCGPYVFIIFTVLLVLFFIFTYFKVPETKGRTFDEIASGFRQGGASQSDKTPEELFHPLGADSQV
In short: (§1)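 HEK293 cells stably overexpressing human GLUT1 or GLUT2, seeded at 60,000 per well, treated with compounds in glucose-free uptake buffer for 30 min at 37 °C. [3H]-deoxy-D-glucose uptake quantified by scintillation counting after ice-cold PBS washes; IC50 determined.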

human GLUT3 = molecular target: T2, human GLUT3 (Homo sapiens, UniProt P11169); assay: [3H]-deoxy-D-glucose uptake assay, GLUT3; conditions: [3H]-deoxy-D-glucose uptake in HEK293 cells stably expressing human GLUT3
T2 construct: expressed in transfected cells
T2 sequence (P11169 1-496): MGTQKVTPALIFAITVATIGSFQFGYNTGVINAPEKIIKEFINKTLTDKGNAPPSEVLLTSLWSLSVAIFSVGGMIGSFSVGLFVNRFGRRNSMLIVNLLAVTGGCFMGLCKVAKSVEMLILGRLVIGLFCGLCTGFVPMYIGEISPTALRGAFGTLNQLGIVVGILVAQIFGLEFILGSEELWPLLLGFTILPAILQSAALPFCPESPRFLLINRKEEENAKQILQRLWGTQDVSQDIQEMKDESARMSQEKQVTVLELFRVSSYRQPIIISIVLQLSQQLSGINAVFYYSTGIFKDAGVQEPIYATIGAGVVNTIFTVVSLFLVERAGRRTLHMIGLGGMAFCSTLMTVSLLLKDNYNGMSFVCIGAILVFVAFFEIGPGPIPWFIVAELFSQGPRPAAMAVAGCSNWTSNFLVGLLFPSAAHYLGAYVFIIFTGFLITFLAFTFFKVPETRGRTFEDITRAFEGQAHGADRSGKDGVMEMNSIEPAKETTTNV
Method: (§2) HEK293 cells were engineered to stably express either human GLUT1, GLUT2, GLUt3 or GLUT4 by transfection with the pReceiver-Lv105 plasmid, containing either hGLUT1, hGLUT2, hGLUT3, or hGLUT4 gene constructs with lipofectamine 2000, hGLUT1- hGLUT2- hGLUT3- or hGLUT4-overexpressing polyclonal populations were isolated under purinomycin selective pressure (1 μg/ml) and maintained in Dulbecco's modified Eagle's medium supplemented with 1 μg/ml purinomycin+10% foetal bovine serum (FBS).
(§3) 60,000 cells per well were seeded overnight into poly-D-lysine coasted 96-well plates. Following media removal, cells were washed twice in warm glucose-free uptake buffer (25 mM HEPES/KOH pH 7.4, 125 mM NaCl, 4.8 mM KCl, 1.2 mM MgSO4, 1.2 mM CaCl2, 1.2 mM KH2PO4). 90 μl of test compounds were added in glucose-free uptake buffer and cells were incubated at 37° C. for 30 min. 10 μl of [3H]-deoxy-D-glucose (0.25 μCi, 125 μM final assay concentration) was then added per well in glucose-free uptake buffer and uptake was allowed to proceed at 37° C. for 30 min.
(§4) Cells were then washed twice with ice-cold PBS and 100 μl of Microscint-20 was added per well. Glucose uptake was quantified with a scintillation counter. The half maximal inhibitory concentration (IC50) (a measure of the effectiveness of the test compound in inhibiting glucose uptake) was determined.

human GLUT2 = molecular target: T3, human GLUT2 (Homo sapiens, UniProt P11168); assay: [3H]-deoxy-D-glucose uptake assay, GLUT2; conditions: [3H]-deoxy-D-glucose uptake in HEK293 cells stably expressing human GLUT2
T3 construct: expressed in transfected cells
T3 sequence (P11168 1-524): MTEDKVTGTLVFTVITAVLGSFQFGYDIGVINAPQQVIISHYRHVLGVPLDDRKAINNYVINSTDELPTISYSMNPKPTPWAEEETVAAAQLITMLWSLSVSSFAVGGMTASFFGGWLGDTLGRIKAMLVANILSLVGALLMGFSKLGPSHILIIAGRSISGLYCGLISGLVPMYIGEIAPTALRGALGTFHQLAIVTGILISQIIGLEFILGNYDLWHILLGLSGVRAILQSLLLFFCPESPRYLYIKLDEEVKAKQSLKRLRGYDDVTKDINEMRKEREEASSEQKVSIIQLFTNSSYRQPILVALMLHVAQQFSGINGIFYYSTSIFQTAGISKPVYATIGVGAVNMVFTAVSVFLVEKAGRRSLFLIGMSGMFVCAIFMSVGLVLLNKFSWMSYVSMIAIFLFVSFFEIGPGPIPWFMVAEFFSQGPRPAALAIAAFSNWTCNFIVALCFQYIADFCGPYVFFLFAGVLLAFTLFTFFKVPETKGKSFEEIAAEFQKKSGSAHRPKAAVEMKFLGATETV
In short: as §1

human GLUT4 = molecular target: T4, human GLUT4 (Homo sapiens, UniProt P14672); assay: [3H]-deoxy-D-glucose uptake assay, GLUT4; conditions: [3H]-deoxy-D-glucose uptake in HEK293 cells stably expressing human GLUT4
T4 construct: expressed in transfected cells
T4 sequence (P14672 1-509): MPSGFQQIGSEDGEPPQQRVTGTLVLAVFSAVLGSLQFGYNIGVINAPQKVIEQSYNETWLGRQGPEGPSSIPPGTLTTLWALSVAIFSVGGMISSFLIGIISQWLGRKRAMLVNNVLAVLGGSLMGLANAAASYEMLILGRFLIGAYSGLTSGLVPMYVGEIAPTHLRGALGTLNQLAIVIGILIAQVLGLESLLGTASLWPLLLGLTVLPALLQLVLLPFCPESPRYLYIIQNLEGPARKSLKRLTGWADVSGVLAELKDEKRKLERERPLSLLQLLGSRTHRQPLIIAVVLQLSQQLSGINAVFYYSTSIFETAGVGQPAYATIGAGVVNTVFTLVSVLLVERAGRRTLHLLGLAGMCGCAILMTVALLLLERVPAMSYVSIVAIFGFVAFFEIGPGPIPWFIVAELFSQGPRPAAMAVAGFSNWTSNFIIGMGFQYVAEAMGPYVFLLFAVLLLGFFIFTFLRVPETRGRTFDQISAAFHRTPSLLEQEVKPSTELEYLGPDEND
Method: as §2, §3, §4

| GLUT1 pIC50 (human GLUT1) | GLUT3 pIC50 (human GLUT3) | GLUT2 pIC50 (human GLUT2) | GLUT4 pIC50 (human GLUT4) | Compound |
| --- | --- | --- | --- | --- |
| +++ (pIC50 ≧ 6.00) | +++ (pIC50 ≧ 6.00) | ++ (pIC50 5.00-5.99) | +++ (pIC50 ≧ 6.00) | CN(c1ccc2nc(-c3ccc(Cl)cc3)c(CN3CCOCC3)n2c1)S(C)(=O)=O [Compound 252] |
| +++ (pIC50 ≧ 6.00) | +++ (pIC50 ≧ 6.00) | +++ (pIC50 ≧ 6.00) | +++ (pIC50 ≧ 6.00) | O=C(c1ccncc1)N1CCN(Cc2c(-c3ccc(Cl)cc3)nc3cnc(C4CC4)cn23)CC1 [Compound 265] |
| +++ (pIC50 ≧ 6.00) | +++ (pIC50 ≧ 6.00) | +++ (pIC50 ≧ 6.00) | +++ (pIC50 ≧ 6.00) | CC(=O)N1CCN(Cc2c(-c3ccc(Cl)cc3Cl)nc3cnc(C4CC4)cn23)CC1 [Compound 271] |
| +++ (pIC50 ≧ 6.00) | +++ (pIC50 ≧ 6.00) | +++ (pIC50 ≧ 6.00) | +++ (pIC50 ≧ 6.00) | O=C(c1cnccn1)N1CCN(Cc2c(-c3ccc(Cl)cc3Cl)nc3cnc(C4CC4)cn23)CC1 [Compound 273] |
| +++ (pIC50 ≧ 6.00) | +++ (pIC50 ≧ 6.00) | +++ (pIC50 ≧ 6.00) | +++ (pIC50 ≧ 6.00) | O=C(c1ccnnc1)N1CCN(Cc2c(-c3ccc(Cl)cc3Cl)nc3cnc(C4CC4)cn23)CC1 [Compound 296] |
| +++ (pIC50 ≧ 6.00) | +++ (pIC50 ≧ 6.00) | +++ (pIC50 ≧ 6.00) | +++ (pIC50 ≧ 6.00) | O=C(C1CCOCC1)N1CCN(Cc2c(-c3ccc(Cl)cc3Cl)nc3cnc(C4CC4)cn23)CC1 [Compound 297] |
| +++ (pIC50 ≧ 6.00) | +++ (pIC50 ≧ 6.00) | ++ (pIC50 5.00-5.99) | +++ (pIC50 ≧ 6.00) | COCC(=O)N1CCN(Cc2c(-c3ccc(Cl)cc3)nc3ccc(N(C)S(C)(=O)=O)cn23)CC1 [Compound 303] |
| +++ (pIC50 ≧ 6.00) | +++ (pIC50 ≧ 6.00) | +++ (pIC50 ≧ 6.00) | +++ (pIC50 ≧ 6.00) | O=C(c1cscn1)N1CCN(Cc2c(-c3ccc(Cl)cc3Cl)nc3cnc(C4CC4)cn23)CC1 [Compound 306] |
| +++ (pIC50 ≧ 6.00) | +++ (pIC50 ≧ 6.00) | ++ (pIC50 5.00-5.99) | +++ (pIC50 ≧ 6.00) | CN(c1ccc2nc(-c3ccc(Cl)cc3)c(CN3CCN(C(=O)C4COC4)CC3)n2c1)S(C)(=O)=O [Compound 309] |
| +++ (pIC50 ≧ 6.00) | +++ (pIC50 ≧ 6.00) | ++ (pIC50 5.00-5.99) | +++ (pIC50 ≧ 6.00) | CN(c1ccc2nc(-c3ccc(Cl)cc3)c(CN3CCN(C(=O)c4ccnnc4)CC3)n2c1)S(C)(=O)=O [Compound 310] |
| +++ (pIC50 ≧ 6.00) | +++ (pIC50 ≧ 6.00) | +++ (pIC50 ≧ 6.00) | +++ (pIC50 ≧ 6.00) | COCC(=O)N1CCN(Cc2c(-c3ccc(Cl)cc3Cl)nc3cnc(C4CC4)cn23)CC1 [Compound 311] |
| +++ (pIC50 ≧ 6.00) | +++ (pIC50 ≧ 6.00) | ++ (pIC50 5.00-5.99) | +++ (pIC50 ≧ 6.00) | CC(=O)N1CCN(Cc2c(-c3ccc(Cl)cc3Cl)nc3ccc(NS(C)(=O)=O)cn23)CC1 [Compound 313] |
| +++ (pIC50 ≧ 6.00) | +++ (pIC50 ≧ 6.00) | ++ (pIC50 5.00-5.99) | +++ (pIC50 ≧ 6.00) | CCS(=O)(=O)Nc1ccc2nc(-c3ccc(Cl)cc3)c(CN3CCN(C(C)=O)CC3)n2c1 [Compound 314] |
| +++ (pIC50 ≧ 6.00) | +++ (pIC50 ≧ 6.00) | ++ (pIC50 5.00-5.99) | +++ (pIC50 ≧ 6.00) | CCS(=O)(=O)N(C)c1ccc2nc(-c3ccc(Cl)cc3)c(CN3CCN(C(C)=O)CC3)n2c1 [Compound 316] |
| +++ (pIC50 ≧ 6.00) | +++ (pIC50 ≧ 6.00) | +++ (pIC50 ≧ 6.00) | +++ (pIC50 ≧ 6.00) | O=C(CO)N1CCN(Cc2c(-c3ccc(Cl)cc3Cl)nc3cnc(C4CC4)cn23)CC1 [Compound 321] |
| +++ (pIC50 ≧ 6.00) | +++ (pIC50 ≧ 6.00) | +++ (pIC50 ≧ 6.00) | +++ (pIC50 ≧ 6.00) | CC(C)(O)C(=O)N1CCN(Cc2c(-c3ccc(Cl)cc3Cl)nc3cnc(C4CC4)cn23)CC1 [Compound 322] |
| +++ (pIC50 ≧ 6.00) | +++ (pIC50 ≧ 6.00) | +++ (pIC50 ≧ 6.00) | +++ (pIC50 ≧ 6.00) | CC(=O)N1CCN(Cc2c(-c3ccc(Cl)cc3)nc3ccc(N4CCCCS4(=O)=O)cn23)CC1 [Compound 326] |
| +++ (pIC50 ≧ 6.00) | +++ (pIC50 ≧ 6.00) | +++ (pIC50 ≧ 6.00) | +++ (pIC50 ≧ 6.00) | CC(=O)N1CCN(Cc2c(-c3ccc(Cl)cc3Cl)nc3ccc(N(C)S(C)(=O)=O)cn23)CC1 [Compound 333] |
| +++ (pIC50 ≧ 6.00) | +++ (pIC50 ≧ 6.00) | ++ (pIC50 5.00-5.99) | +++ (pIC50 ≧ 6.00) | CS(=O)(=O)Nc1ccc2nc(-c3ccc(Cl)cc3Cl)c(CN3CCN(C(=O)C4COC4)CC3)n2c1 [Compound 334] |
